Read-outs that look alike come from different tables or passages of the source.
Key:
Cytotoxicity assay (MTT) = type: cell-based, BALB/c mice; details: BALB/c, mouse
Method: To determinate the toxicity of the inhibitors on mammalian cells, peritoneal macrophages from BALB/c mice, obtained by peritoneal lavage, in concentration of 2 × 10^6 macrophages/mL, were adhered in 96-well culture plates overnight at 37 °C with 5% CO2. The inhibitors were then added in different concentrations and incubated for 72 h at 37 °C and 5% CO2. Cell viability was also assessed by the MTT method. Cytotoxic concentration of 50% of macrophages (CC50) values were calculated using GraPadPrism 8 software. Three independent experiments in triplicate were performed.

[1] = system: Leishmania amazonensis-WT promastigotes; assay: Antipromastigote assay (MTT); type: cell-based; details: 72 h of incubation; interval in brackets; read-out: Antileishmanial effect in Leishmania amazonensis IC50 Promastigote
Method: Leishmania amazonensis–WT promastigotes, in the logarithmic phase of growth, were transferred to 96-well culture plates (final concentration 2 × 10^6 cells/mL) and exposed to different concentrations of inhbitors during 72 h at 25 °C. The cell viability was evaluated by the 3-(4,5-dimethylthiazol-2-yl)-2,5 diphenyltetrazolium bromide (MTT) method (obtained from Sigma-Aldrich). The inhibitory concentration of 50% of parasite growth (IC50) values were calculated using GraphPad Prism 8 software […]. Three independent experiments in triplicate were performed. Amphotericin B (Cristália, São Paulo, SP, Brazil) was used as a reference drug.

[2] = system: L. amazonensis promastigotes; set-up: method as in PMID 17726617; details: 24 h, cited from earlier work
[3] = system: L. donovani in RAW 264.7 cells; set-up: method as in PMID 26040107; details: promastigotes pretreated 2 h; cited from earlier work
[4] = system: L. amazonensis (RFP) amastigotes; assay: Antiamastigote assay (RFP fluorescence, infected peritoneal macrophages); type: cell-based; details: Leishmania amazonensis, Peritoneal macrophage; 72 h of incubation; interval in brackets; read-out: Antileishmanial effect in Leishmania amazonensis IC50 Amastigote
Method: Peritoneal macrophages from BALB/c mice were obtained by peritoneal lavage and distributed in 24-well plates at 2 × 10^6 cells/mL in RPMI medium (Cultilab) containing 10% FBS and a 0.5% penicillin and streptomycin solution (complete RPMI). The plates were incubated for 1 h at 37 °C and 5% CO2, washed with phosphate-buffered saline (PBS), and then reincubated in complete RPMI medium overnight. The cells were washed again with PBS and infected with stationary growth phase L. amazonensis (RFP) promastigotes at a 10:1 ratio for 4 h at 33 °C. The plates were washed with PBS and the inhibitors were added at different concentrations and incubated for 72 h. After this time, each well was scraped to remove attached cells and the reading was taken with a spectrofluorimeter (FLx800, BioTek Instruments, Winooski, VT, USA) at 530 nm and 590 nm of excitation and emission, respectively. […] All assays were performed in triplicate and repeated three times. Results were calculated as the percentage of amastigote survival compared with the nontreated control group, and IC50 values were determined using GraphPad Prism 8 software.

[5] = system: L. donovani serine proteases; set-up: method as in PMID 26040107; details: cited from earlier work
[6] = system: L. amazonensis in peritoneal macrophages; assay: Promastigote pretreatment and infection of peritoneal macrophages; type: cell-based, Leishmania amazonensis; details: for entry of promastigotes into macrophages: promastigotes pretreated 1 h, 0 h after 4 h interaction; for conversion of promastigotes into amastigotes: pretreated parasites (PF-429242 3.2 µM, TPCK 30 µM); for number of intracellular amastigotes (Giemsa, Supplementary Fig. 1): pretreatment with PF-429242 3.2 µM or TPCK 30 µM
Method: (§1) Leishmania amazonensis-RFP promastigotes were pretreated with different concentrations of inhbitors during 1 h at 25 °C. The cells were washed with PBS and used to infect peritoneal macrophages from BALB/c mice (10:1 ratio), not pretreated or pretreated with 0.5 ng/mL IFN-γ overnight, in 24-well plates. After 4 h of interaction, the plates were washed with PBS and (1) scraped to remove attached cells and read using a spectrofluorimeter (time = 0 h) or (2) incubated at 33 °C with 5% CO2 for 24 h, 48 h, and 72 h for later scraping and reading (times = 24 h, 48 h, and 72 h). Three experiments were performed, each one with three replicates.
The same experiment was repeated, but using 13 mm glass coverslips in 24-well plates. The fixation with ethanol and staining with Giemsa were performed. Subsequently, the slides were examined in an optical microscope (Olympus BX53, Shinjuku, Tokyo, Japan) and photographed (Olympus DP73, Shinjuku, Tokyo, Japan).

[7] = system: Leishmania amazonensis-RFP promastigotes; assay: Viability of promastigotes after 1 h of treatment with inhibitors; type: cell-based; details: 1 h treatment, washed; for viability of promastigotes after 1 h of treatment, compared with the control: 0 h, 24 h, 48 h and 72 h of incubation
Method: Leishmania amazonensis-RFP promastigotes were treated with different concentrations of inhibitors during 1 h at 25 °C and were washed with PBS. Then, these cells had their viability determined by fluorescence analysis using a spectrofluorimeter (time = 0 h) and were also reincubated in complete RPMI medium for subsequent analysis of cell viability after 24 h, 48 h, and 72 h (times = 24 h, 48 h, and 72 h) by fluorescence analysis.

[8] = system: L. donovani promastigotes; set-up: method as in PMID 26040107; details: cited from earlier work; for cell viability of L. donovani promastigotes: aprotinin 1 µM, benzamidine 1 mM, after 5 h, 10 h, 15 h and 20 h of incubation
[9] = system: L. amazonensis serine proteases; assay: Enzymatic assay on promastigote lysate with substrate ABZ-V-F-R-S-L-K-Q EDDnp; type: biochemical, Leishmania amazonensis; details: first 10 min; for enzymatic activity of L. amazonensis serine proteases: 2.5 µM inhibitor
Method: The enzymatic assay was conducted in a final volume of 200 µL per well, containing 1 µM of substrate, supernatant of lysate of 3.7 × 10^6 parasites, 2.5 µM of inhibitors (PF-429242 and TPCK) or 3 µM of E-64 in Tris-buffered pH 8. Substrate ABZ-V-F-R-S-L-K-Q EDDnp was used, which was provided by Dr. Luiz Juliano Neto from the Department of Biophysics of UNIFESP-EPM and is described in Alves, L.C. et al.. The lysate was prepared with promastigotes in stationary phase of growth, washed three times with PBS pH 7.2, and in the last wash it was resuspended in Tris-buffered pH 8 with 1% NP40. The parasites were submitted to five rapid freeze–thaw cycles in liquid nitrogen. The lysate was centrifuged at 20,000g for 10 min at […]. The supernatant was stored at −20 °C until use. The read was carried out using the spectrofluorimeter SoftMax M3 with excitation/emission of 320/420 nm.

[10] = system: L. amazonensis (RFP) amastigotes; set-up: method as in PMID 35678670, PMID 33584607, PMID 35890269; details: 72 h of incubation; previously published data (*); read-out: Antileishmanial effect in Leishmania amazonensis IC50 Amastigote; cited from earlier work
L. amazonensis = details: mice infected with L. amazonensis; cited from earlier work
[11] = system: peritoneal macrophages from BALB/c mice; set-up: method as in PMID 35678670, PMID 33584607, PMID 35890269; details: 72 h of incubation; previously published data (*); cited from earlier work
[12] = system: Leishmania amazonensis-WT promastigotes; set-up: method as in PMID 35678670, PMID 33584607, PMID 35890269; details: 72 h of incubation; previously published data (*); read-out: Antileishmanial effect in Leishmania amazonensis IC50 Promastigote; cited from earlier work
[13] = system: L. amazonensis promastigotes and amastigotes; details: cited from earlier work
[14] = system: L. amazonensis in peritoneal macrophages prestimulated with IFN-γ; assay: Promastigote pretreatment and infection of macrophages prestimulated with IFN-γ; type: cell-based, Leishmania amazonensis; details: macrophages prestimulated with 0.5 ng/mL IFN-γ overnight; promastigotes pretreated 1 h
Method: as §1

[15] = system: NO production by host macrophages; assay: Determination of nitric oxide (NO) levels (Griess method); type: cell-based, BALB/c mice; details: supernatant of macrophages infected with promastigotes pretreated for 1 h
Method: Supernatant from cultures of L. amazonensis-infected macrophages, in which promastigotes were pretreated or not with PF-429242 or TPCK, was collected, and NO levels were determined by the Griess method. NO levels were determined in aliquots of 50 µL of the supernatant, to which 50 µL of the Griess reagent were added (Griess Reagent: 1% sulfanilamide in 2.5% of H3PO4 + 0.1% N-1-diidrocloride naftiletilenodiamine in 2.5% H3PO4), in a 96-well microplate. Nitrite content was quantified by comparison with a sodium nitrite standard curve. The absorbance was measured at 540 nm using a spectrophotometer (Multiskan EX, Thermo Electron Corporation, Vantaa, Finland). The assays were carried out in duplicate and three independent experiments were realized. Macrophages prestimulated with 0.5 ng/mL IFN-γ overnight and infected with L. amazonensis promastigotes without pretreatment were used as positive controls.

With `C[C@@H]1[C@H](O)[C@@H](C)/C=C/C=C/C=C/C=C/C=C/C=C/C=C/[C@H](O[C@@H]2O[C@H](C)[C@@H](O)[C@H](N)[C@@H]2O)C[C@@H]2O[C@](O)(C[C@@H](O)C[C@@H](O)[C@H](O)CC[C@@H](O)C[C@@H](O)CC(=O)O[C@H]1C)C[C@H](O)[C@H]2C(=O)O` [AMB, Amphotericin B] the CC50 at 72 h (Cytotoxicity assay (MTT); peritoneal macrophages, 72 h of incubation, MTT, interval in brackets, read-out: Peritoneal macrophages CC50) was 21.8 µM and the IC50 [1] was 0.12 µM.
In the case of `N=C(N)c1ccccc1` [Benzamidine, benzamidine], the CC50 at 72 h (Cytotoxicity assay (MTT)) is listed as 240 µM, the “viability of L. amazonensis promastigotes” value ([2]; 1 mM, 48 h and 72 h of treatment) is listed as “reduced the viability” and the “intracellular survival of the parasites (ranking of inhibitors)” value [3] is listed as “most reduced the intracellular survival”. The IC50 [4] was over 200 µM, the “inhibition of the proteolytic activity” value ([5]; 1 mM) was 72% and the IC50 [1] was over 200 µM. The “entry of promastigotes into macrophages” value [6] was “did not change the entry”, the “permanence and survival of amastigotes within host cells” value ([6]; promastigotes pretreated 1 h with 200 µM or 6.25 µM, up to 72 h) was “did not alter the permanence and survival” and the “viability of promastigotes after 1 h of treatment, compared with the control” value (shortened to “viability … compared with the control”) [7] was “did not change the viability”. The “cell viability of L. donovani promastigotes” value [8] was “reduced the cell viability”.
In the case of `CC(C)C[C@H](NC(=O)[C@H]1O[C@@H]1C(=O)O)C(=O)NCCCCN=C(N)N` [E-64], the “enzymatic activity on serine protease substrate” value ([9]; 3 µM) is reported as “no impact on the activity”.
For `Cc1ccc(S(=O)(=O)N[C@@H](Cc2ccccc2)C(=O)CCl)cc1` [TPCK, N-p-tosyl-L-phenylalanine chloromethyl ketone], the IC50 [10] is listed as 14.2 µM, the “lesion size and parasite load” value (L. amazonensis) is listed as “reduction in lesion size and parasite load” and the CC50 [11] is listed as 139 µM. For the same compound, the “viability of L. amazonensis promastigotes” value ([2]; 100 µM, after 4 h, 48 h and 72 h of incubation) was “reducing cell viability”, the “enzymatic activity of L. amazonensis serine proteases” value [9] was “able to inhibit the enzymatic activity” and the “inhibition of the proteolytic activity” value ([5]; concentration not given) was 52%. The IC50 [12] was 14.6 µM, the “conversion of promastigotes into amastigotes” value [6] was “no difficulty was observed in conversion” and the “number of intracellular amastigotes (Giemsa, Supplementary Fig. 1)” value ([6]; 48 h and 72 h after infection) was “reduction in the number of amastigotes”. For the same compound, the “entry of promastigotes into macrophages” value [6] was “did not alter the entry”, the “survival of parasites within macrophages compared with the negative control” value ([6]; promastigotes pretreated 1 h with 30 µM or 15 µM, 24 h and 48 h after infection) was “reduced survival” and the “survival of parasites within macrophages compared with the negative control” value ([6]; promastigotes pretreated 1 h with 30 µM, 15 µM or 7.5 µM, 72 h after infection) was “reduced survival”. For the same compound, the “growth of promastigotes and intracellular amastigotes” value ([13]; L. amazonensis) was “growth inhibition of promastigotes and intracellular amastigotes”, the “viability of promastigotes after 1 h of treatment” value ([7]; 30 µM, after 72 h of incubation) was “slight reduction in the viability” and the “viability … compared with the control” value [7] was “not able to change cell viability”. The “cell viability of L. donovani promastigotes (reduction)” value ([8]; concentration not given) was “only did so after 15 h and 20 h”, the “intracellular survival of L. amazonensis” value [14] was “impairs the intracellular survival” and the “NO production versus control group” value [15] was “no difference in NO production”.
For PF-429242, the IC50 [10] is listed as 120 µM, the CC50 [11] is listed as 189 µM and the “enzymatic activity of L. amazonensis serine proteases” value [9] is listed as “able to inhibit the enzymatic activity”. For the same compound, the IC50 [12] was 0.83 µM, the “conversion of promastigotes into amastigotes” value [6] was “no difficulty was observed in conversion” and the “number of intracellular amastigotes (Giemsa, Supplementary Fig. 1)” value ([6]; 48 h and 72 h after infection) was “reduction in the number of amastigotes”. The “entry of promastigotes into macrophages” value [6] was “did not alter the entry”, the “survival of parasites within macrophages compared with the control” value ([6]; promastigotes pretreated 1 h with 3.2 µM, 1.6 µM or 0.8 µM, 48 h and 72 h after infection) was “reduced survival” and the growth of promastigotes ([13]; different strains of L. amazonensis) was “inhibition of the growth of promastigotes”. The “viability … compared with the control” value [7] was “not able to change cell viability”, the “intracellular survival of L. amazonensis” value [14] was “impairs the intracellular survival” and the “NO production versus control group” value [15] was “no difference in NO production”.
For aprotinin, the “intracellular survival of the parasites (ranking of inhibitors)” value [3] is listed as “most reduced the intracellular survival”, the “inhibition of the proteolytic activity” value ([5]; 1 µM) is listed as 100% and the “cell viability of L. donovani promastigotes” value [8] is listed as “reduced the cell viability”.
